Assay [1] relates to NMDA receptor. In words: Whole-cell NMDA responses in isolated rat retinal ganglion cells. It counts as cell-based. As for the experimental part:
The third central neuronal preparation in which the effects of oxidation and reduction on NMDA responses were tested was the isolated rat retinal ganglion cell. Postnatal retinal ganglion cells were identified and cultured as described in Lipton et al., supra. Physiological solutions and experimental protocol were the same as described for cortical neurons (Example 2), except that TTX was excluded from the extracellular fluid, since whole-cell recordings were performed on neurons that were solitary and had no apparent connections to other cells and no spontaneous action potentials.
These cells have well-characterized, albeit small, NMDA responses. Treatment with 2 mM DTT (1-3 min) produced potentiation of the response elicited by 200 μM NMDA and 1 μM glycine (250%±130% of control; range, 220%-320%). […] Glycine (1 μM) potentiation of NMDA (200 μM) responses occurred in both the reduced and the oxidized states. […] The effects of reduction and oxidation could be repeated in alternating fashion in these cells for as long as the recording remained stable.

A further assay deals with nicotinic receptor. The assay is described as follows: Nicotinic receptor function in intact chick retina. It counts as cell-based. As for the experimental part:
(§1) Eyecups were obtained from 2-to 5-day-old chicks and continuously superfused at 20-25° C. at a rate of 8 ml/min with Tyrodes solution (130 mM NaCl, 3 mM KCl, 17 mM dextrose, 20 mM NaHCO3, 0.01% w/v phenol red; bubbled with a gas mixture of 95% O2 and 5% CO2) containing 5 mM MgCl2 to reduce synaptic activity. […] Traces were triggered by the opening of two solenoid valves that shunted approximately 200 μl of agonist (1, 1-dimethyl-4-phenyl-piperazinium iodide, DMPP or NMDA) into the perfusion line, Agonists reached the preparation approximately 7s later. The resulting responses originated, at least in part, in the retinal ganglion cells. Some experiments were performed in the presence of 10 μg/ml catalase and 1 μg/ml superoxide dismutase. Antagonists, reducing agents, or oxidizing agents were introduced directly via the perfusate.
The action of DTT lasted for tens of minutes after the reducing agent was removed; any small decrement in the potentiation could be reversed with additional DTT treatment. The function of the nicotinic receptors was restored upon oxidation with 0.1-1.0 mM DTNB (applied for 5 min). […] The reduction and oxidation effects could be alternated repeatedly for as long as the preparation remained stable, which was often more than 9 hr.

The test system of assay [2] is NMDA receptor. The assay is described as follows: NMDA-induced responses recorded in intact chick retina (eyecup, optic nerve DC potential). In kind it is cell-based. As for the experimental part: as §1, with “The resulting responses originated, at least in part, in the retinal ganglion cells.” left out
For another assay, the system named is retinal ganglion cells. The assay is described as follows: Survival of retinal ganglion cells exposed to glutamate (NMDA neurotoxicity). In kind it is cell-based, rat. As for the experimental part: To investigate the influence of redox modulation on NMDA neurotoxicity, survival of an identified central neuron, the retinal ganglion cell, was monitored for 12-24 hr after a brief (5-10 min.) exposure to DTT. To determine the degree of killing specifically related to activation of the NMDA receptor, APV at 200 μM was added to sibling cultures. APV-preventable, glutamate-induced death was increased 70±9% with DTT treatment.
Retinal ganglion cell neurons were labeled in situ, dissociated from the retina, and cultured as follows. Retinal ganglion cells from 7- to 12-day-old Long-Evans rats were labeled and enzymatically dissociated as described by Leifer et al., Science 224: 303, 1984. Following rinse of the dissociated retinal cells with a physiological saline based on Hanks' salts (composition in mM: NaCl, 137; NaHCO3, 1; Na2HPO4, 0.34; KCl, 5,36; KH2PO4, 0.44; CaCl2, 1.25, MgSO4, 0.5; MgCl2, 0.5; N-2-hydroxyethyl-piperazine-N′-2-ethanesulfonic acid (HEPES), 5; dextrose, 22.2; Phenol Red, 0.001% v/v; adjusted to pH 7.2 with 0.3 M NaOH), the cells were mechanically dispersed and aliquoted to treatment vials. These vials contained control saline solution, or saline solution with either 0.5-2 mM DTT, or 0.5 mM DTT in the presence of 1 mM DTNB. Treatment groups with DTNB were readjusted to pH 7.2 with 0.3 M NaOH. Cells were agitated gently over a 5-10 min period. After treatment, 100 μl volumes of the cell suspension were plated onto glass coverslips coated with poly-L-lysine in 35×10 mm tissue-culture dishes containing 2 ml of culture medium. The cell culture medium was based on Eagle's minimum essential medium (MEM), modified so that it was nominally free of magnesium and contained 10 mM CaCl2 to enhance NMDA receptor-mediated neuro-toxicity. The medium was also supplemented with methylcellulose 0.7% w/v, gentamicin 1 μg/ml, dextrose 16 mM, and rat serum 5% v/v. Glutamate levels in the culture medium were monitored by HPLC analysis. Concentrations of glutamate added to the medium of each experiment to induce cell killing averaged 10 μM (day to day variability in neuronal cell death was most probably due to slight variations in the amount of endogenous glutamate or a glutamate-like substance in these cultures). The 100 μl aliquots of cell suspension diluted into the 2 ml of MEM produced a final concentration of 50 μM Mg^2+, as well as levels of DTT and DTNB at 5% of their initial treatment concentrations. The cell cultures were incubated for 12-24 hours at 37° C. in an atmosphere of 5% CO2/95% humidified air. Neuronal survival was then scored by counting retinal ganglion cells displaying uptake and cleavage of fluorescein diacetate to fluorescein, as described by Hahn et al. Proc. Nat. Acad. Sci. USA 85:6556, 1988.
Experiments were conducted in triplicate and repeated on eleven separate days. In order to compare results obtained on different days, data were normalized such that the total number of surviving neurons in a given experiment divided by the number of treatment categories (i.e., 4) equalled 100.
Retinal cells were cultured as described in Example 1. In these experiments transient exposure to the reduced form of DTT (500 μM) occurred in the presence of DTNB (1 mM).

Two compounds from patent publication US6525017B1, “Using glutathiane to protect neurons from injury” (The Children's Medical Center Corporation, priority 1989, dated 2003) can be followed below.

In the case of `O[C@@H](CS)[C@@H](O)CS` [DTT, dithothreitol], in the assay with NMDA receptor [1] (200 μM NMDA + 1 μM glycine, 2 mM DTT 1-3 min, mean ± spread), the “NMDA response, % of control (potentiation)” value was 250%±130%. The “NMDA response, % of control, range” value in the assay on NMDA receptor [1] (200 μM NMDA + 1 μM glycine, 2 mM DTT 1-3 min, range) is on record as 220%-320%. Further, the “nicotinic receptor function after reduction” value in the assay on nicotinic receptor (DTT 1-2 mM applied for 10-25 min) was “blocks nicotinic receptor function”. Moreover, the “response to NMDA, % of control (potentiation)” value with NMDA receptor [2] (100 μM NMDA, DTT 1-2 mM applied for 10-25 min, mean ± spread) was 530%±280%. Moreover, in the assay with NMDA receptor [2] (100 μM NMDA, DTT 1-2 mM applied for 10-25 min, range), the “response to NMDA, % of control, range” value was 200%-860%. For the same compound, the “death of retinal ganglion cells exposed to glutamate in the culture medium” value in the assay on retinal ganglion cells (APV 200 μM, DTT transient exposure, 12-24 hr) is recorded as “substantially increased death”. In addition, in the assay on retinal ganglion cells (brief (5-10 min) exposure to DTT, survival monitored 12-24 hr), the “increase of APV-preventable, glutamate-induced death” value amounted to 70±9%.

Consider `O=C(O)c1cc(SSc2ccc([N+](=O)[O-])c(C(=O)O)c2)ccc1[N+](=O)[O-]` [DTNB, 5′-5′-dithiobis-2-nitrobenzoic acid], for which the “decrement of the native NMDA response” value in the assay on NMDA receptor [1] (0.1-0.2 mM DTNB, mean ± spread) is given as 49.4%±9.4%. Moreover, the “decrement of the native NMDA response, range” value in the assay with NMDA receptor [1] (0.1-0.2 mM DTNB, range) is 37%-60%. In the assay on nicotinic receptor (0.1-1.0 mM DTNB applied for 5 min, after DTT), the “nicotinic receptor function upon oxidation” value is on record as “restored”. Besides, the “decrease of NMDA response following oxidation” value in the assay on NMDA receptor [2] (0.1-1.0 mM DTNB applied for 5 min, compared with controls, mean ± spread) is given as 81.6%±24.1%. The “decrease of NMDA response following oxidation, range” value in the assay with NMDA receptor [2] (0.1-1.0 mM DTNB applied for 5 min, range) is on record as 43%-100%. In addition, the “DTT-enhanced glutamate-induced death with concomitant DTNB” value with retinal ganglion cells (0.5 mM DTT in the presence of 1 mM DTNB) is “totally blocked”.
